The record followed here is ChEMBL document CHEMBL2074449, “P-glycoprotein mediates profound resistance to bisantrene” (Oncol Res, 1994).

The series deals with ATP-dependent translocase ABCB1 (Homo sapiens, UniProt P08183). As to the kind of experiment: TP_TRANSPORTER: efflux in S1-B1-20 cells. Type of series: functional, cell-based.

Structures are written as SMILES.

ATP-dependent translocase ABCB1, sequence (P08183 whole entry): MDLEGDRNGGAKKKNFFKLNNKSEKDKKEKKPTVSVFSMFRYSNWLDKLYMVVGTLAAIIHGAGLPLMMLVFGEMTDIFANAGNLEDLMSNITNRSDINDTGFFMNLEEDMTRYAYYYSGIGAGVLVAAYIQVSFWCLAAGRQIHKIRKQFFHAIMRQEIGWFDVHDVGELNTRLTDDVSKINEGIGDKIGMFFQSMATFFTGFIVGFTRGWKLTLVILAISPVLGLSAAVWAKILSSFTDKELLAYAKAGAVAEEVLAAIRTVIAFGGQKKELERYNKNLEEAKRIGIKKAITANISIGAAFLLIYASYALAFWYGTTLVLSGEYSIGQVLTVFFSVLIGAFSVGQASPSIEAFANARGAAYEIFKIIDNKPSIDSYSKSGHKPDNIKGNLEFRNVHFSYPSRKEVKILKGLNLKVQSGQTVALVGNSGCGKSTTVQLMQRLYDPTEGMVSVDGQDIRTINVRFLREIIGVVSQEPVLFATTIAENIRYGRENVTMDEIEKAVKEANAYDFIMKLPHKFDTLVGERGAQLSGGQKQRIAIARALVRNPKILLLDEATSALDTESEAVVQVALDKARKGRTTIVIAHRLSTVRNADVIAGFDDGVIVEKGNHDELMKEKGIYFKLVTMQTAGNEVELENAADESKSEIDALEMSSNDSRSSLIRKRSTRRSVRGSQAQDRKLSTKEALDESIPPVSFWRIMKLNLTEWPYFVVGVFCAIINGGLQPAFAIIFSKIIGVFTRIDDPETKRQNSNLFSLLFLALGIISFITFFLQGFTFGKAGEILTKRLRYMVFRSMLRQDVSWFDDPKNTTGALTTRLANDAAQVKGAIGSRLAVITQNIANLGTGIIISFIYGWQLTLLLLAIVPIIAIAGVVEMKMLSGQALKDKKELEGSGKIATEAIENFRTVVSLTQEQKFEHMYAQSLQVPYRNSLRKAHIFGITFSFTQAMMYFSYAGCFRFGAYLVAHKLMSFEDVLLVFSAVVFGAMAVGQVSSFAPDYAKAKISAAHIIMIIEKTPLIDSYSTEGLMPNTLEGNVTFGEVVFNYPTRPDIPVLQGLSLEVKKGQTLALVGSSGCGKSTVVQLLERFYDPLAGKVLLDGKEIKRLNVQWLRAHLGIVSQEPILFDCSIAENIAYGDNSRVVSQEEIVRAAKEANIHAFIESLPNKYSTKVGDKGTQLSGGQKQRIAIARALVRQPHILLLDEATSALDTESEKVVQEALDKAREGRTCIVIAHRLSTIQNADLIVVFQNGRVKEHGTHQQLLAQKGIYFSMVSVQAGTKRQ

Turning to `C(=N\NC1=NCCN1)/c1c2ccccc2c(/C=N/NC2=NCCN2)c2ccccc12` [BISANTRENE], the Activity result is “substrate [+]”.
